In patent US20200405697A1, “Antitumor Agent” (Taiho Pharmaceutical Co., Ltd, priority 2017, published 2020):
Blank lines part the entries; values can stand above or below the compound they belong to.

Tests used:
[1] = molecular target: T1, human RNR (histidine tagged human M1 and human M2 proteins) (Homo sapiens, UniProt P23921); assay: Human RNR inhibition effect (dCDP formation from CDP); format: biochemical; settings: 10 μM CDP, 37° C. for 30 minutes, read-out: RNR inhibitory activity IC50
T1 construct: made in house; host or cells: Escherichia coli
T1 sequence (P23921 1-792): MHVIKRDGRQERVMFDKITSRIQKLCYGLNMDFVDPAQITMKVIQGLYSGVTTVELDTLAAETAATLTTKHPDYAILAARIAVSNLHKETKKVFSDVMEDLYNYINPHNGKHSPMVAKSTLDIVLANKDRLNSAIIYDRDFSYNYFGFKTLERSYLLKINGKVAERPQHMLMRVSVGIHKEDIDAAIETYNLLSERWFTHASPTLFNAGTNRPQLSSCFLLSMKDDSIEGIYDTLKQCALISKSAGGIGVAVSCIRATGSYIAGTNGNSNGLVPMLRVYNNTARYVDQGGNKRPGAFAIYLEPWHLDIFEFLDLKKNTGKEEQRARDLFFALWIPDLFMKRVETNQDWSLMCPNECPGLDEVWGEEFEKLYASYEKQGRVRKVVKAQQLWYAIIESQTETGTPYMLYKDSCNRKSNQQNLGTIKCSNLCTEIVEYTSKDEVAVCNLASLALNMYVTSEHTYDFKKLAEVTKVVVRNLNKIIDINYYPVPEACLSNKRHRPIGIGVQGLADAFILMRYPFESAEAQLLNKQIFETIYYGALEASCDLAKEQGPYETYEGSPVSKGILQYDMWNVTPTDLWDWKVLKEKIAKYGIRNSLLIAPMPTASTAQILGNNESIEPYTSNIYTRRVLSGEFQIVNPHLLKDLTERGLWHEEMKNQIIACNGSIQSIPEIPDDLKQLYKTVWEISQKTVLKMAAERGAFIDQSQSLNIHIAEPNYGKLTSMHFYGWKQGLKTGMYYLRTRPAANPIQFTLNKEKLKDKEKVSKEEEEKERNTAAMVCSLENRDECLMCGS
Procedure: The inhibitory activity against the ribonucleotide reduction reaction (RNR inhibitory activity) of the Example compound was determined by measuring the formation of deoxycytidine diphosphate (hereinafter referred to as dCDP) from cytidine diphosphate (hereinafter referred to as CDP) by the following method.
Human M1 subunit (isoform 1, GenBank accession No: NM_001033), to which a histidine tag is fused at the amino terminus, and human M2 subunit (mutant lacking amino terminal 59 amino acids of isoform 2, GenBank accession No: NM_001034), to which a histidine tag is fused, were overexpressed in Escherichia coli and were solubilized after collection, and histidine tagged human M1 and histidine tagged human M2 proteins were purified on a nickel chelate column. A mixture of the histidine tagged human M1 and histidine tagged human M2 proteins was used as RNR in the ribonucleotide reduction reaction. [to]
First, Example compounds were serially diluted with DMSO. Next, human M1 protein and human M2 protein were added to a 0.02% aqueous albumin solution derived from fetal bovine serum, a DMSO solution of the Example compound or the control DMSO solution (final concentration of DMSO was 1%) was added, and the mixture was allowed to stand for 20 minutes. Thereafter, the reaction buffer [50 mM HEPES buffer (pH 7.2) at the final concentration, 4 mM magnesium acetate at the final concentration, 100 mM potassium chloride at the final concentration, 6 mM dithiothreitol at the final concentration, 2 mM adenosine triphosphate at the final concentration, 0.24 mM nicotinamide adenine dinucleotide phosphate at final concentration] and 10 μM CDP at the final concentration were added and incubated at 37° C. for 30 minutes to perform ribonucleotide reduction reaction. Immediately after the reaction, the reaction was stopped by heating at 100° C. for 15 minutes, followed by centrifugation at 10,000 rpm for 10 minutes. After the centrifugation, a portion (5 μL) of the resulting supernatant was analyzed with a high performance liquid chromatography (Shimadzu Corporation, Prominence) using Shim-pack XR-ODS (manufactured by Shimadzu GLC Co., 3.0×100 mm).

[2] = tested on: A549 (Human lung cancer cell line); assay: Effect of combination of sulfonamide compound and other antitumor agent (CellTiter-Glo, combination index): A549
[3] = Example Compound 14 4420 nM + 5-Fluorouracil 2700 nM
[4] = Example Compound 209A 952 nM + 5-Fluorouracil 4310 nM
[5] = Example Compound 235A 1170 nM + 5-Fluorouracil 4310 nM
[6] = Example Compound 14 4420 nM + Azacytidine 4080 nM
[7] = Example Compound 209A 635 nM + Azacytidine 2740 nM
[8] = Example Compound 209A 952 nM + Azacytidine 4110 nM
[9] = Example Compound 235A 780 nM + Azacytidine 2740 nM
[10] = Example Compound 235A 1170 nM + Azacytidine 4110 nM
[11] = Example Compound 14 4420 nM + Cabozantinib 6000 nM
[12] = Example Compound 209A 952 nM + Cabozantinib 6000 nM
[13] = Example Compound 235A 1170 nM + Cabozantinib 6010 nM
[14] = Example Compound 14 4420 nM + Etoposide 3790 nM
[15] = Example Compound 209A 952 nM + Etoposide 3790 nM
[16] = Example Compound 235A 1170 nM + Etoposide 3790 nM
[17] = Example Compound 14 4420 nM + Lapatinib 6000 nM
[18] = Example Compound 209A 952 nM + Lapatinib 6000 nM
[19] = Example Compound 235A 1170 nM + Lapatinib 6010 nM
[20] = Example Compound 14 4420 nM + Luminespib 13.5 nM
[21] = Example Compound 209A 952 nM + Luminespib 13.5 nM
[22] = Example Compound 235A 1750 nM + Luminespib 8.13 nM
[23] = Example Compound 14 4420 nM + Midostaurin 251 nM
[24] = Example Compound 209A 952 nM + Midostaurin 251 nM
[25] = Example Compound 235A 1170 nM + Midostaurin 251 nM
[26] = Example Compound 14 4420 nM + Olaparib 14800 nM
[27] = Example Compound 209A 952 nM + Olaparib 14800 nM
[28] = Example Compound 235A 1170 nM + Olaparib 14800 nM
[29] = Example Compound 14 4420 nM + Oxaliplatin 1060 nM
[30] = Example Compound 209A 952 nM + Oxaliplatin 1060 nM
[31] = Example Compound 235A 1170 nM + Oxaliplatin 1060 nM
[32] = Example Compound 14 2950 nM + Sunitinib 1870 nM
[33] = Example Compound 14 4420 nM + Sunitinib 2800 nM
[34] = Example Compound 209A 635 nM + Sunitinib 1870 nM
[35] = Example Compound 209A 952 nM + Sunitinib 2800 nM
[36] = Example Compound 235A 780 nM + Sunitinib 1870 nM
[37] = Example Compound 235A 1170 nM + Sunitinib 2810 nM
[38] = Example Compound 14 4420 nM + Talazoparib 7990 nM
[39] = Example Compound 209A 952 nM + Talazoparib 8000 nM
[40] = Example Compound 235A 1170 nM + Talazoparib 8000 nM
[41] = Example Compound 14 1970 nM + Trifluridine 288 nM
[42] = Example Compound 14 2950 nM + Trifluridine 431 nM
[43] = Example Compound 209A 635 nM + Trifluridine 431 nM
[44] = Example Compound 235A 780 nM + Trifluridine 431 nM

IC50 [1]: 840 nM
Structure (SMILES): COc1cc(Cl)ccc1S(=O)(=O)N[C@H](c1n[nH]c(=O)o1)C(O)c1c(F)ccc(C)c1C (mixture of isomers) [Example 290, 4-chloro-N-((1S)-2-(6-fluoro-2,3-dimethylphenyl)-2-hydroxy-1-(5-oxo-4,5-dihydro-1,3,4-oxadiazol-2-yl)ethyl)-2-methoxybenzenesulfonamide]

IC50 [1]: 160 nM
Structure (SMILES): C[C@H](c1c(F)ccc2ccccc12)[C@H](NS(=O)(=O)c1ccc(Cl)c2c1OCCC2F)c1n[nH]c(=O)o1 (mixture of isomers) [Example 292, 5-chloro-4-fluoro-N-((1S,2R)-2-(2-fluoronaphthalen-1-yl)-1-(5-oxo-4,5-dihydro-1,3,4-oxadiazol-2-yl)propyl)chroman-8-sulfonamide]

Structure (SMILES): O=c1[nH]cc(F)c(=O)[nH]1 [5-Fluorouracil, 5-fluorouracil]
CI value [2, 3]: 0.880
Fa value [2, 3]: 0.6619
CI value [2, 4]: 0.853
Fa value [2, 4]: 0.7187
CI value [2, 5]: 0.880
Fa value [2, 5]: 0.6738

Structure (SMILES): Nc1ncn([C@@H]2O[C@H](CO)[C@@H](O)[C@H]2O)c(=O)n1 [Azacytidine, azacitidine]
CI value [2, 6]: 0.744
Fa value [2, 6]: 0.7570
CI value [2, 7]: 0.850
Fa value [2, 7]: 0.6005
CI value [2, 8]: 0.520
Fa value [2, 8]: 0.8264
CI value [2, 9]: 0.822
Fa value [2, 9]: 0.5392
CI value [2, 10]: 0.767
Fa value [2, 10]: 0.6909

Structure (SMILES): COc1cc2nccc(Oc3ccc(NC(=O)C4(C(=O)Nc5ccc(F)cc5)CC4)cc3)c2cc1OC [Cabozantinib, cabozantinib]
CI value [2, 11]: 0.868
Fa value [2, 11]: 0.7829
CI value [2, 12]: 0.486
Fa value [2, 12]: 0.8982
CI value [2, 13]: 0.871
Fa value [2, 13]: 0.7659

Structure (SMILES): COc1cc([C@@H]2c3cc4c(cc3[C@@H](O[C@@H]3O[C@@H]5CO[C@@H](C)O[C@H]5[C@H](O)[C@H]3O)[C@H]3COC(=O)[C@H]23)OCO4)cc(OC)c1O [Etoposide, etoposide]
CI value [2, 14]: 0.707
Fa value [2, 14]: 0.7245
CI value [2, 15]: 0.635
Fa value [2, 15]: 0.7460
CI value [2, 16]: 0.763
Fa value [2, 16]: 0.6978

Structure (SMILES): CS(=O)(=O)CCNCc1ccc(-c2ccc3ncnc(Nc4ccc(OCc5cccc(F)c5)c(Cl)c4)c3c2)o1 [Lapatinib, lapatinib]
CI value [2, 17]: 0.512
Fa value [2, 17]: 0.8641
CI value [2, 18]: 0.443
Fa value [2, 18]: 0.8816
CI value [2, 19]: 0.417
Fa value [2, 19]: 0.8726

Structure (SMILES): CCNC(=O)c1noc(-c2cc(C(C)C)c(O)cc2O)c1-c1ccc(CN2CCOCC2)cc1 [Luminespib, luminespib]
CI value [2, 20]: 0.786
Fa value [2, 20]: 0.8373
CI value [2, 21]: 0.832
Fa value [2, 21]: 0.8172
CI value [2, 22]: 0.819
Fa value [2, 22]: 0.8795

Structure (SMILES): CO[C@@H]1[C@H](N(C)C(=O)c2ccccc2)C[C@H]2O[C@]1(C)n1c3ccccc3c3c4c(c5c6ccccc6n2c5c31)C(=O)NC4 [Midostaurin, midostaurin]
CI value [2, 23]: 0.719
Fa value [2, 23]: 0.8117
CI value [2, 24]: 0.583
Fa value [2, 24]: 0.8520
CI value [2, 25]: 0.775
Fa value [2, 25]: 0.7639

Structure (SMILES): O=C(c1cc(Cc2n[nH]c(=O)c3ccccc23)ccc1F)N1CCN(C(=O)C2CC2)CC1 [Olaparib, olaparib]
CI value [2, 26]: 0.668
Fa value [2, 26]: 0.7031
CI value [2, 27]: 0.478
Fa value [2, 27]: 0.7947
CI value [2, 28]: 0.683
Fa value [2, 28]: 0.6832

Structure (SMILES): O=C1[O][Pt]2([NH][C@@H]3CCCC[C@H]3[NH]2)[O]C1=O [Oxaliplatin, oxaliplatin]
CI value [2, 29]: 0.829
Fa value [2, 29]: 0.7498
CI value [2, 30]: 0.762
Fa value [2, 30]: 0.7832
CI value [2, 31]: 0.793
Fa value [2, 31]: 0.7355

Structure (SMILES): CCN(CC)CCNC(=O)c1c(C)[nH]c(/C=C2\C(=O)Nc3ccc(F)cc32)c1C [Sunitinib, sunitinib]
CI value [2, 32]: 0.693
Fa value [2, 32]: 0.7017
CI value [2, 33]: 0.728
Fa value [2, 33]: 0.8248
CI value [2, 34]: 0.688
Fa value [2, 34]: 0.6919
CI value [2, 35]: 0.723
Fa value [2, 35]: 0.8234
CI value [2, 36]: 0.709
Fa value [2, 36]: 0.6775
CI value [2, 37]: 0.675
Fa value [2, 37]: 0.8225

Structure (SMILES): Cn1ncnc1[C@H]1c2n[nH]c(=O)c3cc(F)cc(c23)N[C@@H]1c1ccc(F)cc1 [Talazoparib, talazoparib]
CI value [2, 38]: 0.540
Fa value [2, 38]: 0.7406
CI value [2, 39]: 0.422
Fa value [2, 39]: 0.7998
CI value [2, 40]: 0.585
Fa value [2, 40]: 0.6990

Structure (SMILES): O=c1[nH]c(=O)n([C@H]2C[C@H](O)[C@@H](CO)O2)cc1C(F)(F)F [Trifluridine, trifluridine]
CI value [2, 41]: 0.892
Fa value [2, 41]: 0.4363
CI value [2, 42]: 0.844
Fa value [2, 42]: 0.6485
CI value ([2]; Example Compound 14 4420 nM + Trifluridine 645 nM): 0.678
CI value ([2]; Example Compound 14 6640 nM + Trifluridine 969 nM): 0.791
CI value [2, 43]: 0.897
Fa value [2, 43]: 0.5907
CI value ([2]; Example Compound 209A 952 nM + Trifluridine 646 nM): 0.733
CI value ([2]; Example Compound 209A 1430 nM + Trifluridine 970 nM): 0.775
CI value [2, 44]: 0.869
Fa value [2, 44]: 0.5850
CI value ([2]; Example Compound 235A 1170 nM + Trifluridine 646 nM): 0.680
CI value ([2]; Example Compound 235A 1750 nM + Trifluridine 967 nM): 0.739
